The numbers were not newly measured in PubChem BioAssay AID1259409 (Chemical Carcinogenesis Research Information System (CCRIS), 2018), which cites them from elsewhere.

In the data set the test system is rodent chemically induced tumor inhibition, incidence and multiplicity. The data set is described as follows: CCRIS tumor inhibitor studies. To be noted: Route [Inhibitor]: ORAL, Species: RAT.

Structures are written as SMILES.

As for `NCCS(=O)(=O)O`, the “tumour outcome (control, treated, inhibition, significance)” value was 34%, 16%, 53%, not significant (Carcinogen: AZOXYMETHANE, 25843-45-2, Dose [Inhibitor]: 0, 600 PPM IN DIET BEGINNING 2 WK PRIOR TO CARCINOGEN TREATMENT AND CONTINUING FOR DURATION OF STUDY (STUDY DURATION: 56, Strain/Sex: F344/MALE, Target Tissue: Type of Lesion: COLON: INVASIVE ADENOCARCINOMA, Dose [Carcinogen]: 15 MG/KG 1/WK FOR 2 WK, Promoter: NONE USED); 53%, 61%, -15%, not significant (Carcinogen: AZOXYMETHANE, 25843-45-2, Dose [Inhibitor]: 0, 600 PPM IN DIET BEGINNING 2 WK PRIOR TO CARCINOGEN TREATMENT AND CONTINUING FOR DURATION OF STUDY (STUDY DURATION: 56, Strain/Sex: F344/MALE, Target Tissue: Type of Lesion: COLON: NONINVASIVE ADENOCARCINOMA, Dose [Carcinogen]: 15 MG/KG 1/WK FOR 2 WK, Promoter: NONE USED); 34%, 17%, 50%, not significant (Carcinogen: AZOXYMETHANE, 25843-45-2, Dose [Inhibitor]: 0, 1200 PPM IN DIET BEGINNING 2 WK PRIOR TO CARCINOGEN TREATMENT AND CONTINUING FOR DURATION OF STUDY (STUDY DURATION: 5, Strain/Sex: F344/MALE, Target Tissue: Type of Lesion: COLON: INVASIVE ADENOCARCINOMA, Dose [Carcinogen]: 15 MG/KG 1/WK FOR 2 WK, Promoter: NONE USED); 53%, 47%, 11%, not significant (Carcinogen: AZOXYMETHANE, 25843-45-2, Dose [Inhibitor]: 0, 1200 PPM IN DIET BEGINNING 2 WK PRIOR TO CARCINOGEN TREATMENT AND CONTINUING FOR DURATION OF STUDY (STUDY DURATION: 5, Strain/Sex: F344/MALE, Target Tissue: Type of Lesion: COLON: NONINVASIVE ADENOCARCINOMA, Dose [Carcinogen]: 15 MG/KG 1/WK FOR 2 WK, Promoter: NONE USED); 19/20 (95%), 12/19 (63%), 34%, p<0.02 (Carcinogen: DIETHYLNITROSAMINE, 55-18-5, Dose [Inhibitor]: 0, 2000 PPM IN DIET FOR 3 WK DURING INITIATION PHASE (STUDY DURATION: 24 WK), Strain/Sex: F344/MALE, Target Tissue: Type of Lesion: LIVER: HEPATOCELLULAR ADENOMA, Dose [Carcinogen]: 100 MG/KG BW 1/WK FOR 3 WK, Promoter: PHENOBARBITAL, 50-06-6); 14/20 (70%), 13/19 (68%), 3%, not significant (Carcinogen: DIETHYLNITROSAMINE, 55-18-5, Dose [Inhibitor]: 0, 2000 PPM IN DIET FOR 3 WK DURING INITIATION PHASE (STUDY DURATION: 24 WK), Strain/Sex: F344/MALE, Target Tissue: Type of Lesion: LIVER: HEPATOCELLULAR CARCINOMA, Dose [Carcinogen]: 100 MG/KG BW 1/WK FOR 3 WK, Promoter: PHENOBARBITAL, 50-06-6). Moreover, the “tumour outcome (control, treated, inhibition, significance)” value reads like this: (Carcinogen: DIETHYLNITROSAMINE, 55-18-5, Dose [Inhibitor]: 0, 2000 PPM IN DIET FOR 20 WK BEGINNING POST CARCINOGEN TREATMENT (STUDY DURATION: 24 WK), Strain/Sex: F344/MALE, Target Tissue: Type of Lesion: LIVER: HEPATOCELLULAR ADENOMA, Dose [Carcinogen]: 100 MG/KG BW 1/WK FOR 3 WK, Promoter: NONE USED) 3/24 (13%), 4/18 (22%), -69%, not significant; (Carcinogen: DIETHYLNITROSAMINE, 55-18-5, Dose [Inhibitor]: 0, 2000 PPM IN DIET FOR 20 WK BEGINNING POST CARCINOGEN TREATMENT (STUDY DURATION: 24 WK), Strain/Sex: F344/MALE, Target Tissue: Type of Lesion: LIVER: HEPATOCELLULAR ADENOMA, Dose [Carcinogen]: 100 MG/KG BW 1/WK FOR 3 WK, Promoter: PHENOBARBITAL, 50-06-6) 19/20 (95%), 7/21 (33%), 65%, p<0.0001; (Carcinogen: DIETHYLNITROSAMINE, 55-18-5, Dose [Inhibitor]: 0, 2000 PPM IN DIET FOR 20 WK BEGINNING POST CARCINOGEN TREATMENT (STUDY DURATION: 24 WK), Strain/Sex: F344/MALE, Target Tissue: Type of Lesion: LIVER: HEPATOCELLULAR CARCINOMA, Dose [Carcinogen]: 100 MG/KG BW 1/WK FOR 3 WK, Promoter: NONE USED) 7/24 (29%), 4/18 (22%), 24%, not significant; (Carcinogen: DIETHYLNITROSAMINE, 55-18-5, Dose [Inhibitor]: 0, 2000 PPM IN DIET FOR 20 WK BEGINNING POST CARCINOGEN TREATMENT (STUDY DURATION: 24 WK), Strain/Sex: F344/MALE, Target Tissue: Type of Lesion: LIVER: HEPATOCELLULAR CARCINOMA, Dose [Carcinogen]: 100 MG/KG BW 1/WK FOR 3 WK, Promoter: PHENOBARBITAL, 50-06-6) 14/20 (70%), 13/21 (62%), 11%, not significant.

For `C[Se]C#N`, the “tumour outcome (control, treated, inhibition, significance)” value is listed as 88%, 64%, 27%, not significant (Carcinogen: 7,12-DIMETHYLBENZ[A]ANTHRACENE, 57-97-6, Dose [Inhibitor]: 0, 1 PPM (AS SELENIUM) IN DIET BEGINNING 2 WK PRIOR TO CARCINOGEN DOSE AND CONTINUING FOR DURATION OF STUDY (STUDY DURAT, Strain/Sex: SPRAGUE-DAWLEY/FEMALE, Target Tissue: Type of Lesion: MAMMARY GLAND: ADENOCARCINOMA, Dose [Carcinogen]: 10 MG ONCE AT 55 D OF AGE, Promoter: NONE USED); 88%, 52%, 41%, p<0.05 (Carcinogen: 7,12-DIMETHYLBENZ[A]ANTHRACENE, 57-97-6, Dose [Inhibitor]: 0, 2 PPM (AS SELENIUM) IN DIET BEGINNING 2 WK PRIOR TO CARCINOGEN DOSE AND CONTINUING FOR DURATION OF STUDY (STUDY DURAT, Strain/Sex: SPRAGUE-DAWLEY/FEMALE, Target Tissue: Type of Lesion: MAMMARY GLAND: ADENOCARCINOMA, Dose [Carcinogen]: 10 MG ONCE AT 55 D OF AGE, Promoter: NONE USED); 88%, 40%, 55%, p<0.05 (Carcinogen: 7,12-DIMETHYLBENZ[A]ANTHRACENE, 57-97-6, Dose [Inhibitor]: 0, 3 PPM (AS SELENIUM) IN DIET BEGINNING 2 WK PRIOR TO CARCINOGEN DOSE AND CONTINUING FOR DURATION OF STUDY (STUDY DURAT, Strain/Sex: SPRAGUE-DAWLEY/FEMALE, Target Tissue: Type of Lesion: MAMMARY GLAND: ADENOCARCINOMA, Dose [Carcinogen]: 10 MG ONCE AT 55 D OF AGE, Promoter: NONE USED); 25/30 (83%), 19/30 (63%), 24%, not significant (Carcinogen: 7,12-DIMETHYLBENZ[A]ANTHRACENE, 57-97-6, Dose [Inhibitor]: 0.1, 2 PPM (SELENIUM) IN DIET FOR 3 WK BEGINNING 2 WK PRIOR TO CARCINOGEN DOSE (STUDY DURATION: 25 WK), Strain/Sex: SPRAGUE-DAWLEY/FEMALE, Target Tissue: Type of Lesion: MAMMARY GLAND: TUMOR, Dose [Carcinogen]: 10 MG ONCE, Promoter: NONE USED).
